Data reported in the Deep4Chem optical property database.
Each block holds one molecule with its values, some of them ahead of it.

Assay: solvent given as SMILES

absorption maximum (in CC#N): 493 nm
absorption maximum (in CCCCCC): 499 nm
absorption maximum (in CCOC(C)=O): 495 nm
absorption maximum (in CO): 495 nm
absorption maximum (in ClCCl): 499 nm
SMILES: COc1ccc2n1[B-](F)(F)[N+]1=CC=CC1=C2c1ccccc1

absorption maximum (in O): 347.28 nm
SMILES: CNc1ccc(/C=C/C(=O)OC)cc1

absorption maximum (in CS(C)=O): 556 nm
SMILES: CCCCN1/C(=C/C=C/C2=[N+](C)c3ccccc3C2(C)C)C(C)(C)c2cc(Br)ccc21

SMILES: CCC1(CC)c2cc(C=C(C#N)C#N)ccc2-c2ccc(N(C)C)cc21
absorption maximum (in C1CCCCC1): 480 nm
absorption maximum (in CC#N): 474 nm
absorption maximum (in CCO): 478 nm
absorption maximum (in CCOCC): 470 nm
absorption maximum (in CS(C)=O): 490 nm
absorption maximum (in ClCCl): 490 nm
absorption maximum (in c1ccccc1): 480 nm

absorption maximum (in CCO): 374 nm
SMILES: Cc1c(C)n2c(COC(=O)CNC(=O)OC(C)(C)C)c(C)c(=O)n2c1=O

absorption maximum (in CC#N): 449 nm
SMILES: CN(C)c1ccc(C=C2Oc3cccc(O)c3C2=O)cc1

absorption maximum (in ClCCl): 388 nm
SMILES: CC(C)(C)NC(=O)c1ccc(C(=O)NC(C)(C)C)c2c1c1c3ccccc3c3ccccc3c1c1c3ccccc3c3ccccc3c21

SMILES: Nc1cc(N)cc(-c2nc3ccccc3s2)c1
absorption maximum (in C1CCCCC1): 360 nm
absorption maximum (in C1COCCO1): 360 nm
absorption maximum (in CC#N): 360 nm
absorption maximum (in CC(C)O): 360 nm
absorption maximum (in CCOC(C)=O): 360 nm
absorption maximum (in CCOCC): 360 nm
absorption maximum (in CO): 360 nm
absorption maximum (in O): 360 nm

absorption maximum (in ClC(Cl)Cl): 504 nm
SMILES: CC1=CC(C)=[N+]2C1=C(c1ccc(I)cc1)c1c(C)cc(C)n1[B-]2(F)F

SMILES: F[B-]1(F)n2c(cc(-c3ccccc3)c2-c2ccccc2)C(c2ccccc2)=C2C=C(c3ccccc3)C(c3ccccc3)=[N+]21
absorption maximum (in C1CCOC1): 586 nm
absorption maximum (in CC#N): 576 nm
absorption maximum (in Cc1ccccc1): 592 nm
absorption maximum (in ClCCl): 584 nm

absorption maximum (in ClCCl): 350 nm
SMILES: C(S/C=C/c1ccc(/C=C/SC=C2CCCC2)cc1)=C1CCCC1

SMILES: [C-]#[N+]c1ccc(-c2ccc(N(C)C)cc2)cc1
absorption maximum (in C1CCCCC1): 325 nm
absorption maximum (in C1CCOC1): 334 nm
absorption maximum (in C1COCCO1): 330 nm
absorption maximum (in CC#N): 333 nm
absorption maximum (in CC(C)=O): 327 nm
absorption maximum (in CCCCCC): 323 nm
absorption maximum (in CCOC(C)=O): 330 nm
absorption maximum (in CN(C)C=O): 339 nm
absorption maximum (in CO): 333 nm
absorption maximum (in CS(C)=O): 340 nm
absorption maximum (in Cc1ccccc1): 329 nm
absorption maximum (in ClC(Cl)Cl): 331 nm
absorption maximum (in ClCCl): 336 nm
absorption maximum (in O): 315 nm
absorption maximum (in c1ccncc1): 340 nm

SMILES: Cc1ccc(Nc2ccc(Nc3ccc(C)cc3)c3c2C(=O)c2ccccc2C3=O)cc1
absorption maximum (in C1CCCCC1): 639 nm
absorption maximum (in C1COCCO1): 638 nm
absorption maximum (in CC(C)=O): 638 nm
absorption maximum (in CCCCCCCCCCO): 644 nm
absorption maximum (in CCCCCCCO): 641 nm
absorption maximum (in CCCCCCO): 642 nm
absorption maximum (in CCCCO): 639 nm
absorption maximum (in CCO): 637 nm
absorption maximum (in CN(C)C=O): 643 nm
absorption maximum (in CO): 636 nm
absorption maximum (in CS(C)=O): 644 nm
absorption maximum (in ClC(Cl)(Cl)Cl): 642 nm
absorption maximum (in c1ccccc1): 642 nm

absorption maximum (in O): 409 nm
SMILES: O=C(O)CCCCCNC(=O)c1cccc2c(=O)c3ccccc3[nH]c12

absorption maximum (in ClCCl): 339 nm
SMILES: c1ccc2c(c1)-c1cc(-n3c4ccccc4c4ccccc43)ccc1C21c2ccccc2-n2c3ccccc3c3cccc1c32 (configuration not stated)

absorption maximum (in CC#N): 363 nm
SMILES: C=Cc1cc2cc3c(cc2oc1=O)OCO3

absorption maximum (in O): 389 nm
SMILES: C[NH+](C)c1c2ccccc2cc2ccccc12

absorption maximum (in CC#N): 339 nm
SMILES: c1ccc(N(c2ccccc2)c2ccc(-c3nc4ccccc4n3-c3ccccc3)cc2)cc1

absorption maximum (in ClCCl): 334 nm
SMILES: c1ccc2c(-n3c(-c4ccc(-c5ccc(-c6nc7c8ccccc8c8ccccc8c7n6-c6cccc7ccccc67)c6ccccc56)c5ccccc45)nc4c5ccccc5c5ccccc5c43)cccc2c1

absorption maximum (in ClCCl): 640 nm
SMILES: CCCCCCOc1cc(/C=C/c2cc(OCCCCCC)c(/C=C/c3cc(OCCCCCC)c(C=C4C(=C(C#N)C#N)c5ccccc5C4=C(C#N)C#N)cc3OCCCCCC)cc2OCCCCCC)c(OCCCCCC)cc1C=C1C(=C(C#N)C#N)c2ccccc2C1=C(C#N)C#N

absorption maximum (in ClCCl): 421 nm
SMILES: CC(C)(C)c1ccc(C#Cc2nc(C#Cc3ccc(C(C)(C)C)cc3)c(C#Cc3ccc(C(C)(C)C)cc3)c(C#Cc3ccc(C(C)(C)C)cc3)c2C#Cc2ccc(C(C)(C)C)cc2)cc1

SMILES: O=C1c2ccc(N(c3ccccc3)c3ccccc3)cc2C(=O)c2ccc(N(c3ccccc3)c3ccccc3)cc21
absorption maximum (in Cc1ccccc1): 449 nm

absorption maximum (in CC#N): 380 nm
SMILES: CCOC(=O)c1c2c3c(ccc(C)c3c3cc4c(cc13)[Si](C)(C)O[Si]4(C)C)N(C)C2=O

SMILES: CC(C)(C)c1ccc(N(c2ccc(S(=O)(=O)c3ccc(S(=O)(=O)c4ccc(N(c5ccc(C(C)(C)C)cc5)c5ccccc5C(C)(C)C)cc4)cc3)cc2)c2ccccc2C(C)(C)C)cc1
absorption maximum (in Cc1ccccc1): 351 nm

absorption maximum (in C1CCCCC1): 302 nm
SMILES: C=Cc1ccc(OC)cc1

SMILES: CN(C)c1[se]c(-c2ccccc2)nc1-c1ccccc1
absorption maximum (in ClC(Cl)Cl): 326 nm

absorption maximum (in ClCCl): 371 nm
SMILES: Fc1ccc(C#Cc2cc(C#Cc3ccc(F)cc3)c(C#Cc3ccc(F)cc3)c(C#Cc3ccc(F)cc3)c2C#Cc2ccc(F)cc2)cc1

absorption maximum (in C1CCCCC1): 429.92 nm
absorption maximum (in C1CCOC1): 434.03 nm
absorption maximum (in CN(C)C=O): 438.98 nm
absorption maximum (in CO): 434.97 nm
absorption maximum (in ClC(Cl)Cl): 437.06 nm
absorption maximum (in c1ccccc1): 431.03 nm
SMILES: CC1(C)CCc2c(c3ccccc3c3nc4ccccc4nc23)O1

absorption maximum (in CCO): 424 nm
absorption maximum (in ClCCl): 430 nm
SMILES: CCN(CC)c1ccc2cc(C#N)/c(=N\C(=O)c3ccco3)oc2c1

absorption maximum (in CC#N): 351 nm
absorption maximum (in CCOC(C)=O): 351 nm
absorption maximum (in CO): 345 nm
absorption maximum (in ClC(Cl)Cl): 357 nm
SMILES: Cc1cccc(Nc2ccccc2C(=O)O)c1C

absorption maximum (in ClC(Cl)Cl): 416 nm
SMILES: C(#Cc1ccccc1)C(C#Cc1ccccc1)=Cc1ccc(C=C(C#Cc2ccccc2)C#Cc2ccccc2)cc1

absorption maximum (in C1CCCCC1): 397 nm
absorption maximum (in CO): 397 nm
absorption maximum (in CS(C)=O): 397 nm
absorption maximum (in ClC(Cl)Cl): 399 nm
absorption maximum (in c1ccccc1): 397 nm
SMILES: CCC1=C(C)C(=O)n2c1cc1c(c(C)c(C(=O)OCC(C)C)n1CC(C)C)c2=O

absorption maximum (in CC#N): 568.51 nm
absorption maximum (in CCCCCC): 580.18 nm
absorption maximum (in ClCCl): 576 nm
SMILES: CCCCCCCCOc1ccc(C2=C3C(C)=C(C#Cc4ccc(B(c5c(C)cc(C)cc5C)c5c(C)cc(C)cc5C)cc4)C(C)=[N+]3[B-](F)(F)n3c(C)c(C#Cc4ccc(B(c5c(C)cc(C)cc5C)c5c(C)cc(C)cc5C)cc4)c(C)c32)cc1

absorption maximum (in ClC(Cl)Cl): 385 nm
SMILES: Cc1cc(=O)oc2cc3c4ccc(C(C)(C)C)cc4c4cc(C(C)(C)C)ccc4c3cc12

absorption maximum (in CC#N): 293 nm
absorption maximum (in ClCCl): 293 nm
SMILES: CCOC(=O)c1ccc2nc(N)sc2c1

absorption maximum (in ClC(Cl)Cl): 377 nm
SMILES: CCCCC1(CCCC)c2ccccc2-c2ccc(-c3c4c(nc5ccccc35)-c3cc5c(cc3CC4)-c3nc4ccccc4c(-c4ccc6c(c4)C(CCCC)(CCCC)c4ccccc4-6)c3CC5)cc21

absorption maximum (in ClCCl): 401 nm
SMILES: c1ccc(C2c3ccc4ccc5ccccc5c4c3-c3c2ccc2ccc4ccccc4c32)cc1

SMILES: CN(C)c1ccc2c(c1)C(=O)NC2=O
absorption maximum (in C1CCOC1): 377 nm
absorption maximum (in C1COCCO1): 378 nm
absorption maximum (in CC#N): 388 nm
absorption maximum (in CC(C)(C)O): 387 nm
absorption maximum (in CC(C)=O): 382 nm
absorption maximum (in CC(C)O): 389 nm
absorption maximum (in CCOCC): 371 nm
absorption maximum (in CO): 396 nm
absorption maximum (in O): 408 nm

SMILES: COc1ccc2c3c(cccc13)C(=O)c1ccccc1-2
absorption maximum (in CC(C)=O): 421.05 nm
absorption maximum (in CCCCOCCCC): 412.03 nm
absorption maximum (in CCOC(C)=O): 418.06 nm
absorption maximum (in CCOCC): 414.08 nm
absorption maximum (in Clc1ccccc1): 423.01 nm
absorption maximum (in O=C1CCCCC1): 421.94 nm

absorption maximum (in CC#N): 317 nm
SMILES: COc1ccc(/C=C/c2ccccc2)cc1

absorption maximum (in ClC(Cl)Cl): 784 nm
SMILES: COc1ccc(C2=c3sc(-c4ccc(OC)cc4)c(-c4ccc(OC)cc4)c3=[N+]3C2=Nc2c(-c4ccc(OC)cc4)c4sc(-c5ccc(OC)cc5)c(-c5ccc(OC)cc5)c4n2[B-]3(F)F)cc1

absorption maximum (in CC#N): 343 nm
absorption maximum (in CCO): 357 nm
SMILES: Cc1cc(=O)oc2cc3cc(O)ccc3cc12

SMILES: COc1ccc(-c2csc(-c3ccncc3)n2)cc1
absorption maximum (in CC#N): 394 nm
absorption maximum (in CCO): 340 nm
absorption maximum (in CN(C)C=O): 340 nm
absorption maximum (in CS(C)=O): 341 nm
absorption maximum (in Cc1ccccc1): 340 nm
absorption maximum (in ClCCl): 401 nm

absorption maximum (in ClC(Cl)Cl): 646 nm
SMILES: Cc1cc(C)c(C2=C3C=CC=[N+]3[B-]3(c4cccc5ccccc45)Oc4cc(O)cc5c6ccc(C)cc6c6cc2n3c6c45)c(C)c1 (configuration not stated)

absorption maximum (in CCO): 330 nm
SMILES: COC(=O)C(NC(=O)CCNc1cccc2ccccc12)c1ccccc1 (configuration not stated)

SMILES: N#Cc1c(-n2c3ccccc3c3cc(I)ccc32)c(C#N)c(-n2c3ccccc3c3cc(I)ccc32)c(-n2c3ccccc3c3cc(I)ccc32)c1-n1c2ccccc2c2cc(I)ccc21
absorption maximum (in Cc1ccccc1): 383 nm

absorption maximum (in C1CCOC1): 348 nm
SMILES: N#Cc1c(N2CCCCC2)cc(-c2ccccc2)c2c1C(=O)c1ccccc1-2

absorption maximum (in C1COCCO1): 352 nm
SMILES: c1ccc(-c2nc(-c3ccc(-c4ccc(-c5ccc(-c6nc(-c7ccccc7)c(-c7ccccc7)o6)cc5)cc4)cc3)oc2-c2ccccc2)cc1

absorption maximum (in C1CCCCC1): 409 nm
absorption maximum (in CC#N): 407 nm
absorption maximum (in CO): 406 nm
absorption maximum (in ClCCl): 412 nm
SMILES: C(C#Cc1ccc2ccc3cccc4ccc1c2c34)#Cc1cccc2ccccc12

absorption maximum (in C1CCOC1): 362 nm
SMILES: N#Cc1c(N2CCCCC2)cc(-c2ccc3ccccc3c2)c2c1Cc1ccccc1-2

absorption maximum (in ClC(Cl)Cl): 432 nm
SMILES: Cc1ccc(C2=Cc3ccc4ccccc4[n+]3[B-](F)(F)O2)cc1

absorption maximum (in ClCCl): 436 nm
SMILES: O=c1c2cccc3cccc(c32)c2nc3c4ccccc4c4ccccc4c3n12

absorption maximum (in ClC(Cl)Cl): 506 nm
SMILES: CC1=CC(C)=[N+]2C1=C(c1ccc(I)cc1)c1c(C)cc(C)n1[B-]2(Oc1ccccc1)Oc1ccccc1
